The results in this text go back to patent US11771709B2, “ALK protein degradation agent and anti-tumor application thereof” (ShanghaiTech University, priority 2017, dated 2023).

Format in all cases: cell-based
The test system of assay [1] is SR (NPM-ALK) cells. Put plainly: Growth inhibition IC50 in ALCL SR cells (CCK8/WST, 72 hours). As to conditions: SR cells, WST.
Description: SR (NPM-ALK) and NCI-H2228 (EML4-ALK, V3) cells were purchased from ATCC. […] All Cells were cultured in RPMI1640 medium with 10% FBS and Penicillin-Streptomycin in 37° C. incubator with 5% CO2.
Cells were seeded at specific density in 96 well plates one day before treatment. […] Viable cells were measured via CCK8 reagent and IC50s were calculated via Prism Graphad. Experiments were repeated at least three times.
Assay [2] addresses T1, ALK protein in SR (NPM-ALK) cells (Homo sapiens, UniProt Q9UM73).
T1 construct: NPM (nucleophosmin, NPM1, P06748) fusion partner; host or cells: SR (ALCL) cells; the other entry of the earlier key: NPM1 (P06748, Nucleophosmin)
Description: Western blot of ALK protein level (degradation, DC50), ALK phosphorylation and downstream signaling in SR cells. As to conditions: for DC50 (nM) in SR / DC50: ALK protein degradation in SR cells. (In western blotting, separated proteins are transferred to a membrane and probed.)
Description: Cancer cells were seeded in 1 ml RPMI1640 medium in 24-well plate at the density of 3×10^5 or 1.5×10^5 cells/ml. […] Then cells were washed twice with PBS and lyzed in RIPA lysis buffer with Halt Proteinase and Phosphotase inhibitor. Equal amount of proteins were loaded to run SDS-PAGE gels after denature. The gels were blotted to PVDF membrane. After incubating with first and secondary antibodies, the images were developed using SuperSignal West Pico Chemiluminescent Substrate.
DC50 (concentration required to degrade protein by half) were calculated based on the intensity from western blot, and data were analyzed via Prism GraphPad with non-linear regression.

Assay [3] addresses T2, ALK protein in H3122 (EML4-ALK) cells (Homo sapiens, UniProt Q9UM73).
T2 construct: EML4 (Echinoderm microtubule-associated protein-like 4, Q9HC35) fusion partner, variant 1; host or cells: NCI-H3122 lung adenocarcinoma cells; the other entry of the earlier key: EML4 (Q9HC35, Echinoderm microtubule-associated protein-like 4)
Description: Western blot of ALK protein level (degradation, DC50), ALK phosphorylation and downstream signaling in H3122 cells. As to conditions: ALK protein degradation in H3122 cells.

The mark [4] stands for this setting: 72 h, Brigatinib-based PROTAD molecules (Table 3).

Molecules are shown by their SMILES.

T2 sequence (Q9UM73 with tags, fused parts or gaps): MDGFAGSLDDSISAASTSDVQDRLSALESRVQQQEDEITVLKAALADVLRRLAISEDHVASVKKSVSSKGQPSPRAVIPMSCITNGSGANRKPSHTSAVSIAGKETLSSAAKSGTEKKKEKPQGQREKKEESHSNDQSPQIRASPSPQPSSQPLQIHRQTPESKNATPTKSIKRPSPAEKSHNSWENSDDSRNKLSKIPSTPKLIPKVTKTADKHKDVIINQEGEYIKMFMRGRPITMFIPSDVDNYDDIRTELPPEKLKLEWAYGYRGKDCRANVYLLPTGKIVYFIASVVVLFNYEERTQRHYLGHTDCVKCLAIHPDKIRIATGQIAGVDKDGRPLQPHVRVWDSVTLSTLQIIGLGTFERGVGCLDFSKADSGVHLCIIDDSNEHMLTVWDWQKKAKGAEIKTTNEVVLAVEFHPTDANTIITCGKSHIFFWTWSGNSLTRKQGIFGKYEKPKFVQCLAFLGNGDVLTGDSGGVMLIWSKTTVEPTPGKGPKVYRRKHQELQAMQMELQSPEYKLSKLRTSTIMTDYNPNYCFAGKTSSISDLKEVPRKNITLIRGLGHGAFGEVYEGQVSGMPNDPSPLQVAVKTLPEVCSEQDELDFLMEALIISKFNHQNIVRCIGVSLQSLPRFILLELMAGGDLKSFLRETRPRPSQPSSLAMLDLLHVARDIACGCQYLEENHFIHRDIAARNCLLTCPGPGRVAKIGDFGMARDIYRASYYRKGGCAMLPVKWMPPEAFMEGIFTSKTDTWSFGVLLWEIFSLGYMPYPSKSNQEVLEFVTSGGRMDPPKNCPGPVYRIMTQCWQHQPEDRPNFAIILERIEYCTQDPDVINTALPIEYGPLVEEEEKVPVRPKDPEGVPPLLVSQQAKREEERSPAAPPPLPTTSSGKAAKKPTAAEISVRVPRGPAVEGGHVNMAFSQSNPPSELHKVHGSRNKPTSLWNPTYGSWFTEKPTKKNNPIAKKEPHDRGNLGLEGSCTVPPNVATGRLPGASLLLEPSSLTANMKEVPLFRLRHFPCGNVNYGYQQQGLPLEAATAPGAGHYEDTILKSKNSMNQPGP
T1 sequence (Q9UM73 with tags, fused parts or gaps): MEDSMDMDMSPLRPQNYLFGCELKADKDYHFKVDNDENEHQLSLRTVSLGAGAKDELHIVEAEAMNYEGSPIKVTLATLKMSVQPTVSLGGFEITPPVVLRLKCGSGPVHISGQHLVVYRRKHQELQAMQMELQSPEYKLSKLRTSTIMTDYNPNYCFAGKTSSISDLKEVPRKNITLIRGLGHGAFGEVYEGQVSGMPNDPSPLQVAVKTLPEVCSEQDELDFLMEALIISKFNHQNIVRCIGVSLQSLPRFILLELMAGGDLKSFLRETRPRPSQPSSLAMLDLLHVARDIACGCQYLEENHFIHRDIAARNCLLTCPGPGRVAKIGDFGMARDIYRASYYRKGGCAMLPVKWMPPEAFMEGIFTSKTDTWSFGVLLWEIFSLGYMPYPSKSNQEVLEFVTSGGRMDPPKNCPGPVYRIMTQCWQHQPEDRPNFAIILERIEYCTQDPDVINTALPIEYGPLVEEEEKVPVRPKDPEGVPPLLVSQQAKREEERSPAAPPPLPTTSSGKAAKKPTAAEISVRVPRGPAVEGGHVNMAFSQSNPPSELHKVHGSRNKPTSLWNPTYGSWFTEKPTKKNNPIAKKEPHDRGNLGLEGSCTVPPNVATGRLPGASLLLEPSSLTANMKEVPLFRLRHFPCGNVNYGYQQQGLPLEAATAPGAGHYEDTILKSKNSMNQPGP

What is called IC50 is the concentration that gives 50% inhibition. A lower IC50 goes with greater potency in that assay. On to `COc1cc(N2CCC(N)CC2)ccc1Nc1ncc(Cl)c(Nc2ccccc2P(C)(C)=O)n1` [Brigatinib Analogue B(SIAIS151101), (2-((2-((4-(4-aminopiperidin-1-yl)-2-methoxyphenyl)amino)-5-chloropyrimidin-4-yl)amino)phenyl)dimethylphosphine oxide], for which the IC50 in assay [1] (setting [4]) stood at 1.7 ± 1.4 nM. Moreover, the “DC50 (nM) in SR” value in assay [2] was “Not degrade”. In addition, in assay [3], the “DC50 (nM)) in H3122” value is “Not degrade”.
Consider `COc1cc(N2CCC(N3CCNCC3)CC2)ccc1Nc1ncc(Cl)c(Nc2ccccc2P(C)(C)=O)n1` [Brigatinib Analogue C(SIAIS164005), (2-((5-chloro-2-((2-methoxy-4-(4-(piperazin-1-yl)piperidin-1-yl)phenyl)amino)pyrimidin-4-yl)amino)phenyl)dimethylphosphine oxide], for which, in assay [1] (setting [4]), the IC50 turned out to be 6.7 ± 3.1 nM. The “DC50 (nM) in SR” value in assay [2] is given as “Not degrade”. Moreover, the ALK protein degradation result in assay [2] (SR cells, western blot, 16 hours, up to 500 nM) is “did not degrade ALK protein”. The “DC50 (nM)) in H3122” value in assay [3] was “Not degrade”.
One may read the DC50 as the concentration giving 50% degradation. A higher DC50 goes with degradation only at high concentration. In the case of `COc1cc(N2CCC(NC(=O)CCCCCCNc3cccc4c3C(=O)N(C3CCC(=O)NC3=O)C4=O)CC2)ccc1Nc1ncc(Cl)c(Nc2ccccc2P(C)(C)=O)n1` (stereo not drawn) [SIAIS151123, N-(1-(4-((5-chloro-4-((2-(dimethylphosphoryl)phenyl)amino)pyrimidin-2-yl)amino)-3-methoxyphenyl)piperidin-4-yl)-7-((2-(2,6-dioxopiperidin-3-yl)-1,3-dioxoisoindolin-4-yl)amino)heptanamide], the IC50 in assay [1] (setting [4]) worked out at 1.9 ± 1.5 nM. For the same molecule, the figures for the 50% degradation concentration (DC50) in assay [2] and in assay [3] were 0.1 to 2 nM and 1 to 50 nM, respectively.
Regarding `COc1cc(N2CCC(N3CCN(C(=O)CCOCCOCCOCCNc4cccc5c4C(=O)N(C4CCC(=O)NC4=O)C5=O)CC3)CC2)ccc1Nc1ncc(Cl)c(Nc2ccccc2P(C)(C)=O)n1` (stereo not drawn) [SIAIS164009, 4-((2-(2-(2-(3-(4-(1-(4-((5-chloro-4-((2-(dimethylphosphoryl)phenyl)amino)pyrimidin-2-yl)amino)-3-methoxyphenyl)piperidin-4-yl)piperazin-1-yl)-3-oxopropoxy)ethoxy)ethoxy)ethyl)amino)-2-(2,6-dioxopiperidin-3-yl)isoindoline-1,3-dione], in assay [1] (setting [4]), the half-inhibitory concentration (IC50) is 5.3 ± 1.7 nM. In addition, the 50% degradation concentration (DC50) in assay [2] and in assay [3] was 1 to 10 nM each time. The “concentration at which ALK proteins were degraded” value in assay [2] (SR cells, western blot) is 1 nM.
The molecule `CCc1cc2c(cc1N1CCN(C(=O)CCOCCOCCNc3cccc4c3C(=O)N(C3CCC(=O)NC3=O)C4=O)CC1)C(C)(C)c1[nH]c3cc(C#N)ccc3c1C2=O` (stereo not drawn) [SIAIS164012, 8-(4-(3-(2-(2-((2-(2,6-dioxopiperidin-3-yl)-1,3-dioxoisoindolin-4-yl)amino)ethoxy)ethoxy)propanoyl)piperazin-1-yl)-9-ethyl-6,6-dimethyl-11-oxo-6,11-dihydro-5H-benzo[b]carbazole-3-carbonitrile] registered a half-inhibitory concentration (IC50) in assay [1] (Alectinib based ALK PROTAD compounds (Table 4)) of 48.9 nM. For the same molecule, the half-maximal degradation concentration (DC50) in assay [2] and in assay [3] was 1 to 50 nM each time.
Consider `COc1cc(N2CCC(N3CCN(C(=O)CCOCCOCCOCCOCCNc4cccc5c4C(=O)N(C4CCC(=O)NC4=O)C5=O)CC3)CC2)ccc1Nc1ncc(Cl)c(Nc2ccccc2P(C)(C)=O)n1` (stereo not drawn) [SIAIS164016, 4-((15-(4-(1-(4-((5-chloro-4-((2-(dimethylphosphoryl)phenyl)amino)pyrimidin-2-yl)amino)-3-methoxyphenyl)piperidin-4-yl)piperazin-1-yl)-15-oxo-3,6,9,12-tetraoxapentadecyl)amino)-2-(2,6-dioxopiperidin-3-yl)isoindoline-1,3-dione], for which the midpoint of inhibition in assay [1] (setting [4]), the IC50, lay at 11.2 ± 6.8 nM. The DC50 in assay [2] and in assay [3] was 1 to 10 nM each time.
Turning to `COc1cc(N2CCN(C(=O)CCOCCOCCOCCC(=O)N[C@H](C(=O)N3C[C@H](O)C[C@H]3C(=O)NCc3ccc(-c4scnc4C)cc3)C(C)(C)C)CC2)ccc1Nc1ncc(Cl)c(Nc2ccccc2P(C)(C)=O)n1` [SIAIS1197081, (2S,4R)-1-((S)-2-(tert-butyl)-16-(4-(4-((5-chloro-4-((2-(dimethylphosphoryl)phenyl)amino)pyrimidin-2-yl)amino)-3-methoxyphenyl)piperazin-1-yl)-4,16-dioxo-7,10,13-trioxa-3-azahexadecanoyl)-4-hydroxy-N-(4-(4-methylthiazol-5-yl)benzyl)pyrrolidine-2-carboxamide], the half-inhibitory concentration (IC50) in assay [1] (setting [4]) was 32.5 ± 19.8 nM. The DC50 in assay [3] was 50 to 500 nM.
Taken in the same sequence, the figures for `COc1cc(N2CCN(C(=O)CCOCCOCCOCCOCCC(=O)N[C@H](C(=O)N3C[C@H](O)C[C@H]3C(=O)NCc3ccc(-c4scnc4C)cc3)C(C)(C)C)CC2)ccc1Nc1ncc(Cl)c(Nc2ccccc2P(C)(C)=O)n1` [SIAIS1197083, (2S,4R)-1-((S)-2-(tert-butyl)-19-(4-(4-((5-chloro-4-((2-(dimethylphosphoryl)phenyl)amino)pyrimidin-2-yl)amino)-3-methoxyphenyl)piperazin-1-yl)-4,19-dioxo-7,10,13,16-tetraoxa-3-azanonadecanoyl)-4-hydroxy-N-(4-(4-methylthiazol-5-yl)benzyl)pyrrolidine-2-carboxamide] were 49.9 ± 30.8 nM and 50 to 500 nM.
In the same order, the values of `COc1cc(N2CCN(C(=O)CCOCCOCCOCCOCCOCCC(=O)N[C@H](C(=O)N3C[C@H](O)C[C@H]3C(=O)NCc3ccc(-c4scnc4C)cc3)C(C)(C)C)CC2)ccc1Nc1ncc(Cl)c(Nc2ccccc2P(C)(C)=O)n1` [SIAIS1197085, (2S,4R)-1-((S)-2-(tert-butyl)-22-(4-(4-((5-chloro-4-((2-(dimethylphosphoryl)phenyl)amino)pyrimidin-2-yl)amino)-3-methoxyphenyl)piperazin-1-yl)-4,22-dioxo-7,10,13,16,19-pentaoxa-3-azadocosanoyl)-4-hydroxy-N-(4-(4-methylthiazol-5-yl)benzyl)pyrrolidine-2-carboxamide] are 62.5 ± 39.2 nM and 20 to 100 nM.
In the same order, the values of `COc1cc(N2CCN(C(=O)COCCOCC(=O)N[C@H](C(=O)N3C[C@H](O)C[C@H]3C(=O)NCc3ccc(-c4scnc4C)cc3)C(C)(C)C)CC2)ccc1Nc1ncc(Cl)c(Nc2ccccc2P(C)(C)=O)n1` [SIAIS1197087, (2S,4R)-1-((S)-2-(2-(2-(2-(4-(4-((5-chloro-4-((2-(dimethylphosphoryl)phenyl)amino)pyrimidin-2-yl)amino)-3-methoxyphenyl)piperazin-1-yl)-2-oxoethoxy)ethoxy)acetamido)-3,3-dimethylbutanoyl)-4-hydroxy-N-(4-(4-methylthiazol-5-yl)benzyl)pyrrolidine-2-carboxamide] are 10.6 ± 2.4 nM and 50 to 500 nM.
For `COc1cc(N2CCN(C(=O)CCC(=O)N[C@H](C(=O)N3C[C@H](O)C[C@H]3C(=O)NCc3ccc(-c4scnc4C)cc3)C(C)(C)C)CC2)ccc1Nc1ncc(Cl)c(Nc2ccccc2P(C)(C)=O)n1` [SIAIS1197145, (2S,4R)-1-((S)-2-(4-(4-(4-((5-chloro-4-((2-(dimethylphosphoryl)phenyl)amino)pyrimidin-2-yl)amino)-3-methoxyphenyl)piperazin-1-yl)-4-oxobutanamido)-3,3-dimethylbutanoyl)-4-hydroxy-N-(4-(4-methylthiazol-5-yl)benzyl)pyrrolidine-2-carboxamide], the half-inhibitory concentration (IC50) in assay [1] (setting [4]) turned out to be 8.5 ± 5.6 nM. The DC50 in assay [3] lay in the range of 1 to 50 nM.
As to `COc1cc(N2CCN(C(=O)CCCC(=O)N[C@H](C(=O)N3C[C@H](O)C[C@H]3C(=O)NCc3ccc(-c4scnc4C)cc3)C(C)(C)C)CC2)ccc1Nc1ncc(Cl)c(Nc2ccccc2P(C)(C)=O)n1` [SIAIS1197147, (2S,4R)-1-((S)-2-(5-(4-(4-((5-chloro-4-((2-(dimethylphosphoryl)phenyl)amino)pyrimidin-2-yl)amino)-3-methoxyphenyl)piperazin-1-yl)-5-oxopentanamido)-3,3-dimethylbutanoyl)-4-hydroxy-N-(4-(4-methylthiazol-5-yl)benzyl)pyrrolidine-2-carboxamide], half-maximal inhibition in assay [1] (setting [4]) (IC50) was put at 14.2 ± 8.2 nM. Moreover, in assay [3], the DC50 lay in the range of 20 to 100 nM.
Taken in the same sequence, the figures for `COc1cc(N2CCN(C(=O)CCCCC(=O)N[C@H](C(=O)N3C[C@H](O)C[C@H]3C(=O)NCc3ccc(-c4scnc4C)cc3)C(C)(C)C)CC2)ccc1Nc1ncc(Cl)c(Nc2ccccc2P(C)(C)=O)n1` [SIAIS1197149, (2S,4R)-1-((S)-2-(6-(4-(4-((5-chloro-4-((2-(dimethylphosphoryl)phenyl)amino)pyrimidin-2-yl)amino)-3-methoxyphenyl)piperazin-1-yl)-6-oxohexanamido)-3,3-dimethylbutanoyl)-4-hydroxy-N-(4-(4-methylthiazol-5-yl)benzyl)pyrrolidine-2-carboxamide] were 8.2 ± 3.9 nM and 20 to 100 nM.
In the same order, the values of `COc1cc(N2CCN(C(=O)CCCCCC(=O)N[C@H](C(=O)N3C[C@H](O)C[C@H]3C(=O)NCc3ccc(-c4scnc4C)cc3)C(C)(C)C)CC2)ccc1Nc1ncc(Cl)c(Nc2ccccc2P(C)(C)=O)n1` [SIAIS1197151, (2S,4R)-1-((S)-2-(7-(4-(4-((5-chloro-4-((2-(dimethylphosphoryl)phenyl)amino)pyrimidin-2-yl)amino)-3-methoxyphenyl)piperazin-1-yl)-7-oxoheptanamido)-3,3-dimethylbutanoyl)-4-hydroxy-N-(4-(4-methylthiazol-5-yl)benzyl)pyrrolidine-2-carboxamide] are 16.7 ± 7.3 nM and 20 to 100 nM.
